From US9040519B2, “Fused tetracyclic pyrido [4,3-B] indole and pyrido [3,4-B] indole derivatives and methods of use” (Medivation Technologies, Inc., priority 2010, dated 2015)

Legend:
[1] = molecular target: T1, human recombinant histamine H1 receptor (Homo sapiens, UniProt P35367); assay: Histamine H1 radioligand binding ([3H]Pyrilamine); conditions: compound at 1 μM, 1.2 nM [3H]Pyrilamine, CHO K1 cells; for inhibition at 1 µM: read-out: Histamine H1 Binding (1 μM), percentage inhibition
T1 construct: expressed in transfected cells; host or cells: CHO-K1
T1 sequence (P35367 whole entry): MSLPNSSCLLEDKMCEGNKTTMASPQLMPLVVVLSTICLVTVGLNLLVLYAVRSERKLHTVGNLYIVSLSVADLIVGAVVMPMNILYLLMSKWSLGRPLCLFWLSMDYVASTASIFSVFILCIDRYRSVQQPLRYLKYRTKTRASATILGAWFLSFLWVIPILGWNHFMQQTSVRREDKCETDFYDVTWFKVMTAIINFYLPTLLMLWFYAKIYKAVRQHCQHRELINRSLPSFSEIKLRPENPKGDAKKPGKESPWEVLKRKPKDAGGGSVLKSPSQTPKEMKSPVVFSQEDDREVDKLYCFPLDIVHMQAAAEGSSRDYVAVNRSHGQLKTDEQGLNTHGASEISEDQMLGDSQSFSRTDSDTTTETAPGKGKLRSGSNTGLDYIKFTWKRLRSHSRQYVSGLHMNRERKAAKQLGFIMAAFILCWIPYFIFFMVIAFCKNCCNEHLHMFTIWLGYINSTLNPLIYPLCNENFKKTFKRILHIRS
Description: To evaluate in radioligand binding assays the activity of compounds of the invention, human recombinant histamine H1 receptor expressed in Chinese hamster ovary (CHO) K1 cells (De Backer, M. et al, Biochem. Biophys. Res. Comm. 197(3):1601, 1993) in a modified Tris-HCl buffer (50 mM Tris-HCl, pH 7.4, 2 mM MgCl2, 100 mM NaCl, 250 mM Sucrose) was used. Compounds of the invention were incubated with 1.2 nM [^3H]Pyrilamine for 180 min at 25° C. Non-specific binding was estimated in the presence of 1 μM Pyrilamine. Receptor proteins were filtered and washed, the filters were then counted to determine [^3H]Pyrilamine specifically bound. Compounds were screened at 1 μM or lower, using 1% DMSO as vehicle. Biochemical assay results are presented as the percent inhibition of specific binding in Table 2.

[2] = molecular target: T2, human recombinant dopamine D2L receptor (Homo sapiens, UniProt P14416); assay: Dopamine D2L radioligand binding ([3H]Spiperone); conditions: compound at 1 μM, CHO cells; for inhibition at 1 µM: read-out: Percentage inhibition of ligand binding, Dopamine D2L; for Percentage inhibition of ligand binding, Dopamine D2L: 1 µM
T2 construct: expressed in transfected cells; host or cells: CHO
T2 sequence (P14416 whole entry): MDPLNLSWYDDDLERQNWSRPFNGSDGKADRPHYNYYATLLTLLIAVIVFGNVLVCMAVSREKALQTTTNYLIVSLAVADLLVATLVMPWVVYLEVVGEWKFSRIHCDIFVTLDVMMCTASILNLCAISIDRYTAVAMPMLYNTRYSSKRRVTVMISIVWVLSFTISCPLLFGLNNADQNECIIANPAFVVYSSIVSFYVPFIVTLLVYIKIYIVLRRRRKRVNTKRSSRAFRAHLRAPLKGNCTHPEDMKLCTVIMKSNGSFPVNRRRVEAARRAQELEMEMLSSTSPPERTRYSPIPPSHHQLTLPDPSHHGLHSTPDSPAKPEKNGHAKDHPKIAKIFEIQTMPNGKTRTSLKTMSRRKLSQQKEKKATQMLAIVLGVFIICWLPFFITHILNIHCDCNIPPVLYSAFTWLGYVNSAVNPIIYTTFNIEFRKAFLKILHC
Description: To evaluate in radioligand binding assays the activity of compounds of the invention, human recombinant dopamine D2L receptor expressed in Chinese hamster ovary (CHO) cells (Grandy, D. et al, Proc. Natl. Acad. Sci. USA. 86:9762, 1989; Hayes, G. et al, Mol. Endocrinol. 6:920, 1992) in a modified Tris-HCl buffer (50 mM Tris-HCl, pH 7.4, 1.4 mM Ascorbic Acid, 0.001% BSA, 150 mM NaCl) was used. Compounds of the invention were incubated with 0.16 nM [^3H]Spiperone for 120 min at 25° C. Non-specific binding was estimated in the presence of 10 μM Haloperidol. Receptor proteins were filtered and washed, the filters were then counted to determine [^3H]Spiperone specifically bound. Compounds were screened at 1 μM or lower, using 1% DMSO as vehicle. Biochemical assay results are presented as the percent inhibition of specific binding in Table 3.

[3] = molecular target: T3, human recombinant serotonin (5-Hydroxytryptamine) 5-HT2A receptor (Homo sapiens, UniProt P28223); assay: Serotonin 5-HT2A radioligand binding ([3H]Ketanserin); conditions: compound at 0.1 μM, CHO K1 cells; for inhibition at 0.1 µM: read-out: Percentage inhibition of ligand binding, Serotonin 5-HT2A
T3 construct: expressed in transfected cells; host or cells: CHO-K1
T3 sequence (P28223 whole entry): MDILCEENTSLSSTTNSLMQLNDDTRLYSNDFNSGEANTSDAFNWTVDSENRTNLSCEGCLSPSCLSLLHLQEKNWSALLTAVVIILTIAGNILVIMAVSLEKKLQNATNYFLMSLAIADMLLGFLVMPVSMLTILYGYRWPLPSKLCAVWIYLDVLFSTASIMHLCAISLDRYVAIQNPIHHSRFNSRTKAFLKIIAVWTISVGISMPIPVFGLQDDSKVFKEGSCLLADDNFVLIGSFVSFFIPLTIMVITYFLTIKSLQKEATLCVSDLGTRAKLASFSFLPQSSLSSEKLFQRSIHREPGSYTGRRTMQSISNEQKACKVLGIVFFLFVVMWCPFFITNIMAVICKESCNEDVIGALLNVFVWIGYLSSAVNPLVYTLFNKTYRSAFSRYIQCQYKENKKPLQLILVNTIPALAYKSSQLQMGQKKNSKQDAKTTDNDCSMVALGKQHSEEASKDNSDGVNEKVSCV
Description: To evaluate in radioligand binding assays the activity of compounds of the invention, human recombinant serotonin (5-Hydroxytryptamine) 5-HT2A receptor expressed in Chinese hamster ovary (CHO) K1 cells (Bonhaus, D. et al, Br. J. Pharmacol. 115:622, 1995; Saucier, C. et al, J. Neurochem. 68:1998, 1997) in a 50 mM Tris-HCl buffer, pH 7.4, was used. Compounds of the invention were incubated with 0.5 nM [^3H]Ketanserin for 60 min at 25° C. Non-specific binding was estimated in the presence of 1 μM Mianserin. Receptor proteins were filtered and washed, the filters were then counted to determine [^3H]Ketanserin specifically bound. Compounds were screened at 1 μM or lower, using 1% DMSO as vehicle. Biochemical assay results are presented as the percent inhibition of specific binding in Table 4.

[4] = molecular target: T4, human recombinant serotonin (5-Hydroxytryptamine) 5-HT2C receptor (Homo sapiens, UniProt P28335); assay: Serotonin 5-HT2C radioligand binding ([3H]Mesulergine); conditions: compound at 0.1 μM, CHO K1 cells; for inhibition at 0.1 µM: read-out: Percentage inhibition of ligand binding, Serotonin 5-HT2C
T4 construct: expressed in transfected cells; host or cells: CHO-K1
T4 sequence (P28335 33-458): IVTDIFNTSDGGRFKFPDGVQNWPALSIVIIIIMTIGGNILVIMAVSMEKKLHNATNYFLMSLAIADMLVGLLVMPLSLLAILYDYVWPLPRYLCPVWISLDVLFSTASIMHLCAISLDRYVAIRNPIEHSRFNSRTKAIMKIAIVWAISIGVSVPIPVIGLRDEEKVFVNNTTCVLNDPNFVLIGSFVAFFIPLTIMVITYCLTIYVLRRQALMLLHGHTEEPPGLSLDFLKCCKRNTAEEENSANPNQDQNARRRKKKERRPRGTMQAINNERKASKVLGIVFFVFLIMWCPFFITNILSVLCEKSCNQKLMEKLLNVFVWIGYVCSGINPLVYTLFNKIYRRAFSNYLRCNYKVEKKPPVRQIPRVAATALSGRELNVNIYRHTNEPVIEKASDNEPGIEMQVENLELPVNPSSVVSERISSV
Description: To evaluate in radioligand binding assays the activity of compounds of the invention, human recombinant serotonin (5-Hydroxytryptamine) 5-HT2C receptor expressed in Chinese hamster ovary (CHO) K1 cells (Wolf, W. et al, J. Neurochem. 69:1449, 1997) in a modified Tris-HCl buffer (50 mM Tris-HCl, pH 7.4, 0.1% Ascorbic Acid, 10 μM Pargyline) was used. Compounds of the invention were incubated with 1 nM [^3H]Mesulergine for 60 min at 25° C. Non-specific binding was estimated in the presence of 1 μM Mianserin. Receptor proteins were filtered and washed, the filters were then counted to determine [^3H]Mesulergine specifically bound. Compounds were screened at 1 μM or lower, using 1% DMSO as vehicle. Biochemical assay results are presented as the percent inhibition of specific binding in Table 4.

[5] = molecular target: T5, human recombinant serotonin (5-Hydroxytryptamine) 5-HT6 receptor (Homo sapiens, UniProt P50406); assay: Serotonin 5-HT6 radioligand binding ([3H]LSD); conditions: compound at 0.1 μM, HeLa cells; for inhibition at 0.1 µM: read-out: Percentage inhibition of ligand binding, Serotonin 5-HT6; for Percentage inhibition of ligand binding, Serotonin 5-HT6: 0.1 µM
T5 construct: expressed in transfected cells; host or cells: HeLa
T5 sequence (P50406 whole entry): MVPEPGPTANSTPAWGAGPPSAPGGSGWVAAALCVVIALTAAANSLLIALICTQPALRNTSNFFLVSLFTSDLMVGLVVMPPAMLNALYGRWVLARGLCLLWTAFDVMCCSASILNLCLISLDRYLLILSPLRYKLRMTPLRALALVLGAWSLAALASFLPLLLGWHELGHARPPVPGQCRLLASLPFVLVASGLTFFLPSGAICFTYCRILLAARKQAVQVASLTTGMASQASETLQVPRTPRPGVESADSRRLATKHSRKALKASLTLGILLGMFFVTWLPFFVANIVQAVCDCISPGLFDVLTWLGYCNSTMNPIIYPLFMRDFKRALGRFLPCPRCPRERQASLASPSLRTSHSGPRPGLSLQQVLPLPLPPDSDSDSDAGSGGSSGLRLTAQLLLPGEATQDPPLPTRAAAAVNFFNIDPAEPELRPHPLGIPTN
Description: To evaluate in radioligand binding assays the activity of compounds of the invention, human recombinant serotonin (5-Hydroxytryptamine) 5-HT6 receptor expressed in human HeLa cells (Monsma, F. Jr. et al, Mol. Pharmacol. 43:320, 1993) in a modified Tris-HCl buffer (50 mM Tris-HCl, pH 7.4, 150 mM NaCl, 2 mM Ascorbic Acid, 0.001% BSA) was used. Compounds of the invention were incubated with 1.5 nM [3H]Lysergic acid diethylamide (LSD) for 120 min at 37° C. Non-specific binding was estimated in the presence of 5 μM Serotonin (5-HT). Receptor proteins were filtered and washed, the filters were then counted to determine [3H]LSD specifically bound. Compounds were screened at 1 μM or lower, using 1% DMSO as vehicle. Biochemical assay results are presented as the percent inhibition of specific binding in Table 4.

[6] = molecular target: T6, human recombinant serotonin (5-Hydroxytryptamine) 5-HT7 receptor (Homo sapiens, UniProt P34969); assay: Serotonin 5-HT7 radioligand binding ([3H]LSD); conditions: compound at 0.1 μM, CHO cells; for inhibition at 0.1 µM: read-out: Percentage inhibition of ligand binding, Serotonin 5-HT7
T6 construct: expressed in transfected cells; host or cells: CHO
T6 sequence (P34969 whole entry): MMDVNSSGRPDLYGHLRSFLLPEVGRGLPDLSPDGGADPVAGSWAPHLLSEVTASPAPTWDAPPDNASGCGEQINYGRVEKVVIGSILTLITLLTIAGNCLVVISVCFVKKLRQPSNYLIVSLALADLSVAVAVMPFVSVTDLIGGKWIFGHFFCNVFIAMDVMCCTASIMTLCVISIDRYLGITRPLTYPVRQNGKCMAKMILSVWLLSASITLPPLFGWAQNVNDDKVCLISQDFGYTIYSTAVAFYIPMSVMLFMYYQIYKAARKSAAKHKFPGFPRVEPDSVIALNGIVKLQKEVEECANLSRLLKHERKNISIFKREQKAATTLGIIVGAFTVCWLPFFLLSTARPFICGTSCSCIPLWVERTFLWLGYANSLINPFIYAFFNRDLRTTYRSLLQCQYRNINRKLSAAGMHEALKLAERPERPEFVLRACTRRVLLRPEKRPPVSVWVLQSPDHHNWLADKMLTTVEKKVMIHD
Description: To evaluate in radioligand binding assays the activity of compounds of the invention, human recombinant serotonin (5-Hydroxytryptamine) 5-HT7 receptor expressed in Chinese hamster ovary (CHO) cells (Roth, B. et al, J. Pharmacol. Exp. Ther. 268:1403, 1994; Shen, Y. et al, J. Biol. Chem. 268:18200, 1993) in a modified Tris-HCl buffer (50 mM Tris-HCl, pH 7.4, 10 mM MgCl2, 0.5 mM EDTA) was used. Compounds of invention were incubated with 5.5 nM [^3H] Lysergic acid diethylamide (LSD) for 2 h at 25° C. Non-specific binding was estimated in the presence of 10 μM Serotonin (5-HT). Receptor proteins were filtered and washed, the filters were then counted to determine [^3H]LSD specifically bound. Compounds were screened at 1 μM or lower, using 1% DMSO as vehicle. Biochemical assay results are presented as the percent inhibition of specific binding in Table 4.

SMILES	inhibition at 1 µM [1]	inhibition at 1 µM [2]	inhibition at 0.1 µM [3]	inhibition at 0.1 µM [4]	inhibition at 0.1 µM [5]	inhibition at 0.1 µM [6]	Histamine H1 Binding (1 μM), percentage inhibition [1]	Percentage inhibition of ligand binding, Dopamine D2L [2]	Percentage inhibition of ligand binding, Serotonin 5-HT2A ([3]; 0.1 µM)	Percentage inhibition of ligand binding, Serotonin 5-HT2C ([4]; 0.1 µM)	Percentage inhibition of ligand binding, Serotonin 5-HT6 [5]	Percentage inhibition of ligand binding, Serotonin 5-HT7 ([6]; 0.1 µM)
Cc1ccc2c(c1)c1c3n2CC(c2ccc(F)cc2)=CCC3(C)CN(C)C1 (stereo not drawn) [Compound 1, 6-(4-fluoro-phenyl)-2,3a,10-trimethyl-1,2,3,3a,4,7-hexahydro-2,7a-diaza-cyclohepta[jk]fluorene]	11%	12%	56%	45%	8%	26%	–	–	–	–	–	–
Cc1ccc2c(c1)c1c3n2CC(c2ccc(F)cc2)CC3(C)CN(C)C1 (stereo not drawn) [Compound 2]	–	–	–	–	–	–	63%	13%	49%	36%	12%	34%
Cc1ccc2c(c1)c1c3n2CCC(c2ccc(F)cc2)CC3(C)CN(C)C1 (stereo not drawn) [Compound 3]	78%	22%	45%	39%	10%	46%	–	–	–	–	–	–
Cc1ccc2c(c1)c1c3n2CC(c2ccncc2)CC3(C)CN(C)C1 (stereo not drawn) [Compound 4]	12%	14%	47%	35%	6%	38%	–	–	–	–	–	–
Cc1ccc2c(c1)c1c3n2CC=C(c2ccc(F)cc2)CC3(C)CN(C)C1 (stereo not drawn) [Compound 5]	94%	60%	54%	32%	39%	35%	–	–	–	–	–	–
Cc1ccc2c(c1)c1c3n2CC(c2ccc(F)cc2)CC3(C)CN(C)C1 (stereo not drawn) [Compound 6]	51%	–	54%	38%	–	39%	–	6%	–	–	35%	–
Cc1ccc2c(c1)c1c3n2CC(c2ccc(F)cc2)CCC3(C)CN(C)C1 (stereo not drawn) [Compound 7, 6-(4-fluoro-phenyl)-2,3a,10-trimethyl-1,2,3,3a,4,5,6,7-octahydro-2,7a-diaza-cyclohepta[jk]fluorene]	19%	0%	57%	41%	6%	54%	–	–	–	–	–	–
Cc1ccc2c(c1)c1c3n2CC(c2ccncc2)OC(C)CC3(C)CN(C)C1 (stereo not drawn) [Compound 8]	6%	13%	68%	54%	4%	55%	–	–	–	–	–	–
Cc1ccc2c(c1)c1c3n2CC(C)(c2ccncc2)OC(C)CC3(C)CN(C)C1 (stereo not drawn) [Compound 9]	6%	2%	87%	73%	21%	57%	–	–	–	–	–	–
